Assay results reported in ChEMBL document CHEMBL4828709, “Discovery of 2,4-pyrimidinediamine derivatives as potent dual inhibitors of ALK and HDAC” (Eur J Med Chem, 2021).
Activity calls are given as the source filed them. No cut-off for these calls is given here.

Assays:
A549 = assay: cells; format: functional, cell-based; details: Homo sapiens, A549, 72 h
Description: Antiproliferative activity against human A549 cells assessed as inhibition of cell proliferation measured after 72 hrs by CCK8 assay

SH-SY5Y [1] = assay: cells; format: functional, cell-based; details: Homo sapiens, 72 h
Description: Antiproliferative activity against human SH-SY5Y cells harboring ALK F1174L mutant assessed as inhibition of cell proliferation measured after 72 hrs by CCK8 assay

Histone deacetylase 1 [2] = molecular target: T1, Histone deacetylase 1 (Homo sapiens, UniProt Q13547); details: Sf9, dose 10.0 nM, time 15.0 min
T1 sequence (Q13547 whole entry): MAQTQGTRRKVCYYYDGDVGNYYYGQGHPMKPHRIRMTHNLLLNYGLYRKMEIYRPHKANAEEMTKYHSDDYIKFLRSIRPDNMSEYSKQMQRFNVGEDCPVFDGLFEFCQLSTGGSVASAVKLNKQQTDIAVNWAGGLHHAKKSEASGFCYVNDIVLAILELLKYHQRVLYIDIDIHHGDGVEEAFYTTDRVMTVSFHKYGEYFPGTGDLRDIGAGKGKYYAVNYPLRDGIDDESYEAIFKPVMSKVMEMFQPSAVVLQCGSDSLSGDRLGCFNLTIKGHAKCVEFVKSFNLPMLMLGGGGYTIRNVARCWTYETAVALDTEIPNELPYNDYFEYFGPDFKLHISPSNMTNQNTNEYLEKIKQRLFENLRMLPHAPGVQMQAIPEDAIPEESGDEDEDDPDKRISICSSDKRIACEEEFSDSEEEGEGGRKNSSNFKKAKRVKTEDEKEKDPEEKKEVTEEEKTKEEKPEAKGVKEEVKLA

Histone deacetylase 1 [3] = molecular target: T1, Histone deacetylase 1; details: Sf9, dose 100.0 nM, time 15.0 min
HepG2 = assay: cells; format: functional, cell-based; details: Homo sapiens, HepG2, 72 h
Description: Antiproliferative activity against human HepG2 cells assessed as inhibition of cell proliferation measured after 72 hrs by CCK8 assay

NCI-H2228 = assay: cells; format: functional, cell-based; details: Homo sapiens, NCI-H2228, 72 h
MDA-MB-231 [4] = assay: cells; format: functional, cell-based; details: Homo sapiens, MDA-MB-231, 72 h
Description: Antiproliferative activity against human MDA-MB-231 cells assessed as inhibition of cell proliferation measured after 72 hrs by CCK8 assay

SH-SY5Y [5] = assay: Antimigratory activity against human SH-SY5Y cells assessed as wound closure at 0.4 uM measured after 48 hrs by cell scratch assay (reference value: 15.1%); format: functional
MDA-MB-231 [6] = assay: Induction of apoptosis in human MDA-MB-231 cells assessed as orange-red fluorescence intensity at 1 to 4 uM measured after 24 hrs by AO/EB staining based fluorescence microscopy; format: functional, cell-based; details: dose 1-4 µM
MDA-MB-231 [7] = assay: Induction of apoptosis in human MDA-MB-231 cells assessed as necrotic cells at 1 uM measured after 24 hrs by Annexin V-FITC/PI staining based flowcytometry (reference value: 0.94%); format: functional
MDA-MB-231 [8] = assay: Induction of apoptosis in human MDA-MB-231 cells assessed as early apoptotic cells at 2 uM measured after 24 hrs by Annexin V-FITC/PI staining based flowcytometry (reference value: 0.64%); format: functional
MDA-MB-231 [9] = assay: Induction of apoptosis in human MDA-MB-231 cells assessed as necrotic cells at 2 uM measured after 24 hrs by Annexin V-FITC/PI staining based flowcytometry (reference value: 0.94%); format: functional
MDA-MB-231 [10] = assay: Induction of apoptosis in human MDA-MB-231 cells assessed as viable cells at 4 uM measured after 24 hrs by Annexin V-FITC/PI staining based flowcytometry (reference value: 93.14%); format: functional; details: read-out: Activity
SH-SY5Y [11] = assay: Induction of apoptosis in human SH-SY5Y cells assessed as viable cells at 1 uM measured after 24 hrs by Annexin V-FITC/PI staining based flowcytometry (reference value: 77.05%); format: functional; details: read-out: Activity
SH-SY5Y [12] = assay: Induction of apoptosis in human SH-SY5Y cells assessed as necrotic cells at 1 uM measured after 24 hrs by Annexin V-FITC/PI staining based flowcytometry (reference value: 7.81%); format: functional
SH-SY5Y [13] = assay: Induction of apoptosis in human SH-SY5Y cells assessed as necrotic cells at 2 uM measured after 24 hrs by Annexin V-FITC/PI staining based flowcytometry (reference value: 7.81%); format: functional
SH-SY5Y [14] = assay: Induction of apoptosis in human SH-SY5Y cells assessed as early apoptotic cells at 4 uM measured after 24 hrs by Annexin V-FITC/PI staining based flowcytometry (reference value: 0.82%); format: functional
SH-SY5Y [15] = assay: Induction of apoptosis in human SH-SY5Y cells assessed as late apoptotic cells at 4 uM measured after 24 hrs by Annexin V-FITC/PI staining based flowcytometry (reference value: 14.32%); format: functional
SH-SY5Y [16] = assay: Induction of apoptosis in human SH-SY5Y cells assessed as necrotic cells at 4 uM measured after 24 hrs by Annexin V-FITC/PI staining based flowcytometry (reference value: 7.81%); format: functional
MDA-MB-231 [17] = assay: Cell cycle arrest in human MDA-MB-231 cells assessed as accumulation of cells at S phase at 1 uM measured after 24 hrs by PI staining based flowcytometry method (reference value: 20.81%); format: functional
MDA-MB-231 [18] = assay: Cell cycle arrest in human MDA-MB-231 cells assessed as accumulation of cells at G1 phase at 2 uM measured after 24 hrs by PI staining based flowcytometry method (reference value: 55.32%); format: functional
MDA-MB-231 [19] = assay: Cell cycle arrest in human MDA-MB-231 cells assessed as accumulation of cells at G2 phase at 2 uM measured after 24 hrs by PI staining based flowcytometry method (reference value: 23.89%); format: functional
MDA-MB-231 [20] = assay: Cell cycle arrest in human MDA-MB-231 cells assessed as accumulation of cells at G1 phase at 4 uM measured after 24 hrs by PI staining based flowcytometry method (reference value: 55.32%); format: functional
MDA-MB-231 [21] = assay: Cell cycle arrest in human MDA-MB-231 cells assessed as accumulation of cells at G2 phase at 4 uM measured after 24 hrs by PI staining based flowcytometry method (reference value: 23.89%); format: functional
SH-SY5Y [22] = assay: Cell cycle arrest in human SH-SY5Y cells assessed as accumulation of cells at S phase at 1 uM measured after 24 hrs by PI staining based flowcytometry method (reference value: 27.69%); format: functional
SH-SY5Y [23] = assay: Cell cycle arrest in human SH-SY5Y cells assessed as accumulation of cells at G1 phase at 2 uM measured after 24 hrs by PI staining based flowcytometry method (reference value: 59.8%); format: functional
SH-SY5Y [24] = assay: Cell cycle arrest in human SH-SY5Y cells assessed as accumulation of cells at G2 phase at 2 uM measured after 24 hrs by PI staining based Flowcytometry method (reference value: 13.23%); format: functional
SH-SY5Y [25] = assay: Cell cycle arrest in human SH-SY5Y cells assessed as accumulation of cells at G1 phase at 4 uM measured after 24 hrs by PI staining based flowcytometry method (reference value: 59.8%); format: functional
[26] = molecular target: T2, ALK tyrosine kinase receptor (Homo sapiens, UniProt Q9UM73); assay: Inhibition of human ALK in human SH-SY5Y cells assessed as inhibition of ERK phosphorylation at Thr202/Tyr204 residue at 4 uM measured after 24 hrs by Western blot assay; format: cell-based
T2 sequence (Q9UM73 19-1620 limits assumed): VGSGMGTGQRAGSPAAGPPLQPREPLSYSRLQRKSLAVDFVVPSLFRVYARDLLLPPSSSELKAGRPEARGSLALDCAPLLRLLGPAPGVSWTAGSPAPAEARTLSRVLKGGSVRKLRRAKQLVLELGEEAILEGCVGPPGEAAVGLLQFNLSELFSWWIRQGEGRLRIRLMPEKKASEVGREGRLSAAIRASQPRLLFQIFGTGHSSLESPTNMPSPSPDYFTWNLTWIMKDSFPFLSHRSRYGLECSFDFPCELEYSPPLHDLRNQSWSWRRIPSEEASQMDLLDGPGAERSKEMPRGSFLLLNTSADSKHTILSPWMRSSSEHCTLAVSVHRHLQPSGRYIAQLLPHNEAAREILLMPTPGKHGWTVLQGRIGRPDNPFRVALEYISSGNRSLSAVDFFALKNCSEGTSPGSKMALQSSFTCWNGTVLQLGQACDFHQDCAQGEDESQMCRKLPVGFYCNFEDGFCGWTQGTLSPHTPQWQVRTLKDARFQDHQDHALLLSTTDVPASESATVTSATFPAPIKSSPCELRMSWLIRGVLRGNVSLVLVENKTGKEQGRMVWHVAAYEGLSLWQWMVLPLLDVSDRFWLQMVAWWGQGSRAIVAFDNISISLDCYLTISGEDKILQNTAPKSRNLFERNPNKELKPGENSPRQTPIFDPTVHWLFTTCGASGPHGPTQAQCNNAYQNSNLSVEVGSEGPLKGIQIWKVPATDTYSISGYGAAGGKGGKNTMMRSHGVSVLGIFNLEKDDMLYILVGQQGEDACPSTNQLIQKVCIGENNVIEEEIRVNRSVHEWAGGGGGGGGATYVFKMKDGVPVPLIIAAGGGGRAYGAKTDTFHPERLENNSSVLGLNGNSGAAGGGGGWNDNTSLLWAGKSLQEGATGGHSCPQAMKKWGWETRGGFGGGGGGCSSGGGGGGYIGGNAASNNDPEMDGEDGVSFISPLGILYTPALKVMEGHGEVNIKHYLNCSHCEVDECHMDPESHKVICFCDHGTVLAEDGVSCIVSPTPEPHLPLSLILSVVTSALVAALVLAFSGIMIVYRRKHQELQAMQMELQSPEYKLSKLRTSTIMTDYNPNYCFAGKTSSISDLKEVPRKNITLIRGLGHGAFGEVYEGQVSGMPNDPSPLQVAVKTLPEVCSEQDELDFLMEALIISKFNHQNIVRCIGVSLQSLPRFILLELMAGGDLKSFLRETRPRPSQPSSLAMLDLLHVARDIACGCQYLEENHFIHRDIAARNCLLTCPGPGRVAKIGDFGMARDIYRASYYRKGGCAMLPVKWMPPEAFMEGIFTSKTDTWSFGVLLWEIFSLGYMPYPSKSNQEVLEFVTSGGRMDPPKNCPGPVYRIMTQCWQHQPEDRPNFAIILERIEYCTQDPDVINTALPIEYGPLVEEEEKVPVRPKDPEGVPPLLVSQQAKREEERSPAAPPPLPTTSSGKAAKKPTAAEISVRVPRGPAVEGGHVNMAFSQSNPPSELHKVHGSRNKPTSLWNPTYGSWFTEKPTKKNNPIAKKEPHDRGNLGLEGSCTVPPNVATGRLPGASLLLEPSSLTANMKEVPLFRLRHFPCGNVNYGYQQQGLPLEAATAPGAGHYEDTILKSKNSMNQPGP

[27] = molecular target: T2, ALK tyrosine kinase receptor; assay: Inhibition of human ALK at 1 uM
[28] = molecular target: Insulin-like growth factor 1 receptor (Homo sapiens) (UniProt P08069); assay: Inhibition of human IGF1R at 1 uM
Sequence of Insulin-like growth factor 1 receptor (Homo sapiens) (P08069 31-736 limits assumed): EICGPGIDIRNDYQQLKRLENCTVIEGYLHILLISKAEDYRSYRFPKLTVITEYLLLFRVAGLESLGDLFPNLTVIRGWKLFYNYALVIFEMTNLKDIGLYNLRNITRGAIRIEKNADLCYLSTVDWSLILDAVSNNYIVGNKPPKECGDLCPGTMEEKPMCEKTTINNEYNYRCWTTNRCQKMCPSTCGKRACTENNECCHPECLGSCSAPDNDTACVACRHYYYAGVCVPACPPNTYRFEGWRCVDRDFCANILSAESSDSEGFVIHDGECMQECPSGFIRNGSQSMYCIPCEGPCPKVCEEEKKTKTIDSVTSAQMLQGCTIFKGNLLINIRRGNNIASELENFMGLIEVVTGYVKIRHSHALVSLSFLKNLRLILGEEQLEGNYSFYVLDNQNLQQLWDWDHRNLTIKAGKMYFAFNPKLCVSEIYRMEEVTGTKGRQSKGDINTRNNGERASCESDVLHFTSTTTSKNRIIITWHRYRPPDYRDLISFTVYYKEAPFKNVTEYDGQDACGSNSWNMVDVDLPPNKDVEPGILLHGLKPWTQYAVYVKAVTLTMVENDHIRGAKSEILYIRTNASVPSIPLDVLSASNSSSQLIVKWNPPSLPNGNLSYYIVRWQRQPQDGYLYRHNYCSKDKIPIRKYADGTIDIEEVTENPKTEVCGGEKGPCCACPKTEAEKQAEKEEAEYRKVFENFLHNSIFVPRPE
Sequence of Insulin-like growth factor 1 receptor (Homo sapiens) (P08069 741-1367 limits assumed): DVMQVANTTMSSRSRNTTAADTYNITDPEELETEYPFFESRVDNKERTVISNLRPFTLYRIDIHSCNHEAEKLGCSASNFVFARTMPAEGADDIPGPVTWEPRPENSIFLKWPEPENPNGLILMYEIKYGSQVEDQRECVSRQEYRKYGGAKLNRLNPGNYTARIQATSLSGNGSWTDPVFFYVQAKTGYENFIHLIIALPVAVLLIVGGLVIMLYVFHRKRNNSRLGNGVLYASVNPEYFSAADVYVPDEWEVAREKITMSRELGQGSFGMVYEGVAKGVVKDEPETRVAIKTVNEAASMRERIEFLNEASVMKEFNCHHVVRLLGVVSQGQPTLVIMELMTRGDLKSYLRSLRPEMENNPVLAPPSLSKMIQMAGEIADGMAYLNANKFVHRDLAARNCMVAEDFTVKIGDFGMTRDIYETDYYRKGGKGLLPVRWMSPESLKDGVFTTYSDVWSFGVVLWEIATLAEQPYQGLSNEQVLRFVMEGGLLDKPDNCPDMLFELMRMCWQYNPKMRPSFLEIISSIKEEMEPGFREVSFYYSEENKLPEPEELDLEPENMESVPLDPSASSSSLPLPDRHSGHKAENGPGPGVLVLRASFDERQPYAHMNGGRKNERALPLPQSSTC

[29] = AUC (0 to infinity) in Sprague-Dawley rat at 1 mg/kg, iv measured for 12 hrs by LC-MS/MS analysis; format: ADME, organism-based; parameters: route intravenous, dose 1 mg/kg, time 12 hrs; details: in vivo
[30] = Volume of distribution at steady state in Sprague-Dawley rat at 1 mg/kg, iv measured for 12 hrs by LC-MS/MS analysis; format: ADME, organism-based; details: in vivo
[31] = system: ALK tyrosine kinase receptor (Homo sapiens), Q9UM73 [G1202R]; assay: Potency index, ratio of ceritinib IC50 to test compound IC50 for inhibition of ALK G1202R mutant (unknown origin)
Sequence of ALK tyrosine kinase receptor (Homo sapiens), Q9UM73 [G1202R] (Q9UM73 whole entry G1202R): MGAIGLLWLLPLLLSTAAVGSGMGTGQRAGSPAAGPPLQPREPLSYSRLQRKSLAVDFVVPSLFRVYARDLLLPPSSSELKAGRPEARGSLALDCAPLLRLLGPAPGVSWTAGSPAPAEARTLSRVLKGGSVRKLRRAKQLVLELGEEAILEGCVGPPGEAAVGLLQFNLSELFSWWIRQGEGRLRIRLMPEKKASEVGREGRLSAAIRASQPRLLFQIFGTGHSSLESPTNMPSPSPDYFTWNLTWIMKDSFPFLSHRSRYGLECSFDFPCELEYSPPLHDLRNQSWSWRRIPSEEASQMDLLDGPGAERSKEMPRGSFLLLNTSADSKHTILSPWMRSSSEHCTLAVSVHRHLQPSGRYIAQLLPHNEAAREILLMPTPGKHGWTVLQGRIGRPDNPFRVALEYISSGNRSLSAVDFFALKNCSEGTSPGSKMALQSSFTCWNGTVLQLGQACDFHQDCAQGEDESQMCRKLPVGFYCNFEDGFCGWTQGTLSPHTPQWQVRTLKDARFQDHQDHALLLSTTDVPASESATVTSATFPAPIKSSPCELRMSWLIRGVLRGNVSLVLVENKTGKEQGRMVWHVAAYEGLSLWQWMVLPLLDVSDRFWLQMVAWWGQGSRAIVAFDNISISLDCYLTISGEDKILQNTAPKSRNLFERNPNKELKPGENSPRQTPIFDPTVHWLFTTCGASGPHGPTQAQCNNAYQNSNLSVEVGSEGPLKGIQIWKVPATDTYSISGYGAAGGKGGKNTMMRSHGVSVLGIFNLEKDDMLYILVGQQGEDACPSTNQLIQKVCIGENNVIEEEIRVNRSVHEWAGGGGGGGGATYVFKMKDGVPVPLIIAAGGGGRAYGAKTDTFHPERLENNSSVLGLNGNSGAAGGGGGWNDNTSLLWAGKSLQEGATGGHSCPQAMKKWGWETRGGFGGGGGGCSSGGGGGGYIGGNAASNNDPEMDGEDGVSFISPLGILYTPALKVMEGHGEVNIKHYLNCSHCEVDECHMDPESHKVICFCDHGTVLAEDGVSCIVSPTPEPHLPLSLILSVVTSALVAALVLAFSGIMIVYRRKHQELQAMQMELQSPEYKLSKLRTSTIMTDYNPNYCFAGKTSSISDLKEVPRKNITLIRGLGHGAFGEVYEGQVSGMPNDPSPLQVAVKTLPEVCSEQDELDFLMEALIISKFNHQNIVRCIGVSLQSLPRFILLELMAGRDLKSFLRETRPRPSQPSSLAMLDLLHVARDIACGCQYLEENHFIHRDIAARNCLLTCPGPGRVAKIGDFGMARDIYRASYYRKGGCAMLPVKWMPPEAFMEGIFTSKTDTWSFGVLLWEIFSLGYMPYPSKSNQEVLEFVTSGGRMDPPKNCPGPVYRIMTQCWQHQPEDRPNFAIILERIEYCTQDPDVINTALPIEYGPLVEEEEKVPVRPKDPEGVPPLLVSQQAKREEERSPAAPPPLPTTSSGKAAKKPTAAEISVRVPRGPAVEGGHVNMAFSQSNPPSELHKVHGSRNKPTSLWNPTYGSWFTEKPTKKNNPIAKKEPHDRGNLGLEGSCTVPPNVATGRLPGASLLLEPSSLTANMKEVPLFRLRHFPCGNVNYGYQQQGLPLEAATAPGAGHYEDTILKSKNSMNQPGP

[32] = molecular target: Histone deacetylase (Homo sapiens) (UniProt Q13547+O15379+Q9UBN7+Q92769+Q9UQL6+Q8WUI4+Q9BY41+Q96DB2+P56524+Q9UKV0+Q969S8); assay: Inhibition of HDAC in human SH-SY5Y cells assessed as increase of intracellular acetylated histone H3 level at 1 to 4 uM measured after 24 hrs by Western blot assay; format: cell-based; details: dose 1-4 µM
[33] = molecular target: T2, ALK tyrosine kinase receptor; assay: Inhibition of ALK in human MDA-MB-231 cells assessed as inhibition of Akt phosphorylation at Ser473 residue measured after 24 hrs by Western blot assay; format: cell-based; details: dose 1-4 µM

Q: With `CC(C)S(=O)(=O)c1ccccc1Nc1nc(Nc2ccc(NC(=O)CCCCCCC(=O)NO)cc2)ncc1Cl` as the molecule, how does the IC50 (A549) read?
A: 0.46 µM

Q: What about the IC50 (SH-SY5Y [1]) of the same molecule?
A: 0.11 µM

Q: What about the inhibition (Histone deacetylase 1 [2]) of the same molecule?
A: 54%

Q: And the inhibition (Histone deacetylase 1 [3])?
A: 87%

Q: And the IC50 (HepG2)?
A: 0.64 µM

Q: And the IC50 (NCI-H2228)?
A: 0.13 µM

Q: And the IC50 (MDA-MB-231 [4])?
A: 0.46 µM

Q: And the Activity (SH-SY5Y [5])?
A: 2.8%

Q: And the Activity (MDA-MB-231 [6])?
A: Active

Q: And the Activity (MDA-MB-231 [7])?
A: 1.36%

Q: What about the Activity (MDA-MB-231 [8]) of the same molecule?
A: 5.5%

Q: What about the Activity (MDA-MB-231 [9]) of the same molecule?
A: 1.68%

Q: What about the viability at 4 µM (MDA-MB-231 [10]) of the same molecule?
A: 76.9%

Q: What about the viability at 1 µM (SH-SY5Y [11]) of the same molecule?
A: 87.9%

Q: What about the Activity (SH-SY5Y [12]) of the same molecule?
A: 10.08%

Q: And the Activity (SH-SY5Y [13])?
A: 10.51%

Q: And the Activity (SH-SY5Y [14])?
A: 5.34%

Q: And the Activity (SH-SY5Y [15])?
A: 45.5%

Q: What about the Activity (SH-SY5Y [16]) of the same molecule?
A: 12.95%

Q: And the Activity (MDA-MB-231 [17])?
A: 32.42%

Q: What about the Activity (MDA-MB-231 [18]) of the same molecule?
A: 32.53%

Q: And the Activity (MDA-MB-231 [19])?
A: 49.05%

Q: What about the Activity (MDA-MB-231 [20]) of the same molecule?
A: 34.64%

Q: And the Activity (MDA-MB-231 [21])?
A: 50.99%

Q: And the Activity (SH-SY5Y [22])?
A: 18.33%

Q: And the Activity (SH-SY5Y [23])?
A: 3.56%

Q: And the Activity (SH-SY5Y [24])?
A: 75.94%

Q: And the Activity (SH-SY5Y [25])?
A: 4.38%

Q: And the inhibition [26]?
A: Active

Q: And the inhibition [27]?
A: Active

Q: And the inhibition [28]?
A: Active

Q: What about the AUC(0-inf) [29] of the same molecule?
A: 0.205 µg·h/mL

Q: What about the Vdss [30] of the same molecule?
A: 3.3 L/kg

Q: What about the Ratio IC50 [31] of the same molecule?
A: 10

Q: And the inhibition [32]?
A: Active

Q: What about the inhibition [33] of the same molecule?
A: Dose-Dependent Effect
